Data from patent publication US20040106635A1, “Spiroisoquinoline compound, a method for preparing the same and an intermediate thereof” (priority 2001, published 2004).

Experiments:
[1] = molecular target: SK channel (specific binding of 125I-apamine to the membrane); assay: Assay of 125I-apamine-binding inhibition (competitive binding to colon membrane fraction); conditions: guinea pig colon membrane 10 μg/mL, 125I-apamin 10 pM, 4° C., 60 minutes; read-out: 125I-apamine-binding inhibitory activity (IC50; μM)
Procedure: (Assay of ^125I-Apamine-Binding Inhibition)
Male Hartley guinea pigs (Age: 4 weeks or more)
Each test drug was dissolved in a buffer (5 mM Tris-HCl, 5.4 mM KC1, 0.1% bovine serum albumin (BSA), pH 7.4; This buffer is hereinafter referred as buffer (3)). Hardly water-soluble test drugs were dissolved in dimethylsulfoxide followed by being diluted with buffer (3).
The experiments were carried out according to the method described by Hugues et al (Life Sciences 31, 437-443, 1982) and Catterall et al (Journal of Biochemistry 254, 11379-11387, 1979).
The colon was isolated from guinea pigs and mucosal cells were removed therefrom. The colon was homogenized together with a buffer solution (1)(40 mM Tris-HCl, 8% sucrose, pH 7.4) and the homogenate was centrifuged at 130,000 g for 60 minutes. The pellet was suspended in the buffer solution (1) and the suspension was layered on top of a discontinuous sucrose gradient composed of 33% sucrose and 40% sucrose. After centrifugation at 160,000 g for 90 minutes, the 8/33%-layer was collected and suspended in a buffer solution (2)(5 mM Tris-HCl, pH 7.4). The suspension was further centrifuged at 160,000 g for 60 minutes. The resultant pellet was suspended in buffer (3) at a final concentration of 500 μg of membrane protein per mL and used for binding assay (If necessary, this suspension was frozen and stored in a liquid nitrogen).
The membrane (10 μg/mL), ^125I-apamin (10 pM) and a test drug solution were added to the buffer (3) and the mixture was incubated at 4° C. for 60 minutes. After incubation, the mixture was filtered through cell-harvester and the radioactivity of ^125I-apamin retained by the filter was counted with a gamma-counter. The inhibitory activity (IC50) of the test drug on specific binding of ^125I-apamine to the membrane was calculated. The binding level of ^125I-apamine in the presence of large excess(100 nM) of apamine was defined as non-specific binding of ^125I-apamin.

guinea pig = assay: Evaluation of evacuation-promoting activity (fecal pellets after clonidine); format: in vivo; conditions: 15 min after clonidine 30 μg/kg i.p., minimum dose with more fecal pellets than control at one hour
Procedure: (Evaluation of Evacuation-Promoting Activity)
Male Hartley guinea pigs (Age: 4 to 5 weeks; n=6 to 10/group)
Each test drug was dissolved in distilled water. Hardly water-soluble test drugs were suspended in a 0.5% carboxymethyl cellulose solution. Dose of the test drug solution was 5 mL/kg.
Guinea pigs (2 animals/cage) were encaged and acclimatized for a few days prior to the examinations. Fifteen minutes after the administration of clonidine (30 μg/kg, i.p.), each test compound solution (5 mL/kg) was administered intraperitoneally or orally to the animals. One hour after the administration of the test compound, number of evacuated fecal pellets in each cage was measured and recorded. Effective dose of the test compound was determined as a minimum dose in which the number of evacuated fecal pellets was grater than that in control group (group of guinea pigs to which clonidine and vehicle of the test compound were administered d).

[2] = molecular target: acetylcholinesterase (AChE) (Homo sapiens, UniProt P22303); assay: Inhibitory activity on acetylcholinesterase (AChE), Ellman method; format: biochemical; conditions: 25° C., pH 7.4, in the presence of 1% BSA, absorbance at 412 nm
Procedure: (Inhibitory Activity on acetylcholinesterase (AChE))
Each test drug was dissolved in distilled water containing 0.1% BSA (pH 7.4). Hardly water-soluble test drugs were dissolved in dimethylsulfoxide followed by being diluted with distilled water containing 0.1% BSA (pH 7.4).
Measurements of AChE activity were carried out according to the method described by Ellman et al (Biochem Pharmacol 7, 88-95, 1961). A solution of 12 mM 5,5,-dithiobis-(2-nitrobenzoic acid) (50 μL; final concentration: 0.3 mM), a solution of AChE (2-4 U/mL; 50 μL) and a test drug solution (50 μL) were added, in this order, to 110 mM phosphate buffer (1.8 mL; final concentration: 100 mM; pH 7.4) and the mixture was incubated for a predetermined period (3 to 60 minutes) at 25° C. After incubation, a solution of 20 mM acetylthiocholin iodide (50 μL; final concentration: 0.5 mM) was added to the mixture. Immediately after stirring the mixture, absorbance at 412 nm of the reaction mixture was measured. In terms of change in the absorbance per unit time (z,900 E/min), the AChE-inhibitory activity of the test drug (IC50) was calculated. Concomitantly, the measurements of the present experiment were carried out in the presence of 1% BSA.

Sequence of acetylcholinesterase (AChE) (P22303 32-614, species assumed): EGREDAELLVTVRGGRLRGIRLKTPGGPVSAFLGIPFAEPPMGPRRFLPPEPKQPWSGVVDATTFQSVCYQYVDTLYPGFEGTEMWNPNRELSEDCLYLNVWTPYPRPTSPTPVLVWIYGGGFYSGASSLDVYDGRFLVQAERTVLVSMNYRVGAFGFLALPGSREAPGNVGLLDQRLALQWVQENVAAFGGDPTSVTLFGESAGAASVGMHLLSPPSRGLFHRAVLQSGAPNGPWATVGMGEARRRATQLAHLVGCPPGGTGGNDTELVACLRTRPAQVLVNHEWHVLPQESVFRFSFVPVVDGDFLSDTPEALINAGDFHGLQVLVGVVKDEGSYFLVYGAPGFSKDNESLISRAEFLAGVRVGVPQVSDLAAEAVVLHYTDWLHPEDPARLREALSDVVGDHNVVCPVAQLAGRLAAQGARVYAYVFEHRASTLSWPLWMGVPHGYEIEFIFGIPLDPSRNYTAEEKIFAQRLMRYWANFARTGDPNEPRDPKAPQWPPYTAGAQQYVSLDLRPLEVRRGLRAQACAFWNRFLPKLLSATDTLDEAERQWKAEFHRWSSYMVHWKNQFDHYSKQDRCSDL

| Structure (SMILES) | IC50 [1] | Evacuation-promoting activity in guine pig (Effective dose: mg/kg p.o.) (guinea pig) | also measured |
| --- | --- | --- | --- |
| CCN1CCc2cc(OC)c(OC)cc2C1C1CC(C(=O)N2CCN(c3ncnc4c3nnn4C)CC2)CCC12c1cc(OC)c(OC)cc1CCN2C(=O)CCNC (stereo not drawn) [Example 241(2)] | 0.01 µM |  | Evacuation-promoting activity in guinea pig (Effective dose: mg/kg i.p.) (guinea pig): 0.03 mg/kg |
| CCC(=O)OCOC(=O)N(C)CCC(=O)N1CCc2cc(OC)c(OC)cc2[C@]12CC[C@@H](C(=O)N1CCN(c3ncnc4c3cnn4Cc3ccncc3)CC1)C[C@@H]2C1c2cc(OC)c(OC)cc2CCN1CC (relative stereo) [313 (2), (1R*,2R*(S*),4R*)-2′-[3-[N-(propionyloxymethyloxycarbonyl)-N-methylamino]propionyl]-3′,4′-dihydro-6′,7′-dimethoxy-2-(2-ethyl-1,2,3,4-tetrahydro-6,7-dimethoxy-1-isoquinolyl)-4-[4-[1-(4-pyridylmethyl)-1H-pyrazolo[3,4-d]pyrimidin-4-yl]-1-piperazinyl]carbonyl-spiro[cyclohexane-1,1′(2′H)-isoquinoline]] |  | 0.1 mg/kg |  |
| CCCn1ncc2c(N3CCN(C(=O)C4CCC5(c6cc(OC)c(OC)cc6CCN5C(=O)CCNC)C(C5c6cc(OC)c(OC)cc6CCN5CC)C4)CC3)ncnc21 (stereo not drawn) [Example 236(2)] | 0.06 µM |  |  |
| CCCn1ncc2c(N3CCN(C(=O)[C@@H]4CC[C@]5(c6cc(OC)c(OC)cc6CCN5C(=O)CCN(C)C(=O)c5ccccc5COC(=O)c5ccccc5)[C@@H](C5c6cc(OC)c(OC)cc6CCN5CC)C4)CC3)ncnc21 (relative stereo) [386 (2), (1R*,2R*(S*),4R*)-2′-[3-[N-(2-benzoyloxymethylbenzoyl)-N-methylamino]-propionyl]-3′,4′-dihydro-6′,7′-dimethoxy-2-(2-ethyl-1,2,3,4-tetrahydro-6,7-dimethoxy-1-isoquinolyl)-4-[4-[1-propyl-1H-pyrazolo[3,4-d]pyrimidin-4-yl]-1-piperazinyl]carbonyl-spiro[cyclohexane-1,1′(2′H)-isoquinoline]] |  | 1 mg/kg |  |
| CNCCCCN1CCc2cc(OC)c(OC)cc2C12CCC(C(=O)N1CCN(c3ncnc4c3cnn4Cc3ccccc3Cl)CC1)CC2 (stereo not drawn) [295 (4), (1α,4β)-2′-[4-(methylamino)butyl]-3′,4′-dihydro-6′,7′-dimethoxy-4-[4-[1-(2-chlorophenylmethyl)-1H-pyrazolo[3,4-d]pyrimidin-4-yl]-1-piperazinyl]carbonyl-spiro[cyclohexane-1,1′(2′H)-isoquinoline]] |  |  | IC50 [2]: 0.02 µM |
| CCC(=O)OCOC(=O)N(C)CCC(=O)N1CCc2cc(OC)c(OC)cc2[C@]12CC[C@@H](C(=O)N1CCN(c3ncnc4c3cnn4Cc3ccncc3)CC1)C[C@@H]2C1c2cc(OC)c(OC)cc2CCN1CC (relative stereo) [313 (1), (1R*,2R*(S*),4R*)-2′-[3-[N-(propionyloxymethyloxycarbonyl)-N-methylamino]propionyl]-3′,4′-dihydro-6′,7′-dimethoxy-2-(2-ethyl-1,2,3,4-tetrahydro-6,7-dimethoxy-1-isoquinolyl)-4-[4-[1-(4-pyridylmethyl)-1H-pyrazolo[3,4-d]pyrimidin-4-yl]-1-piperazinyl]carbonyl-spiro[cyclohexane-1,1′(2′H)-isoquinoline]] |  | 0.1 mg/kg |  |
| CCN1CCc2cc(OC)c(OC)cc2C1[C@H]1C[C@H](C(=O)N2CCN(c3ncnc4c3nnn4C)CC2)CC[C@]12c1cc(OC)c(OC)cc1CCN2C(=O)CCN(C)C(=O)OCOC(=O)C(C)(C)C (relative stereo) [315 (2), (1R*,2R*(S*),4R*)-2′-[3-[N-(pivaloyloxy-methyloxycarbonyl)-N-methylamino]propionyl]-3′,4′-dihydro-6′,7′-dimethoxy-2-(2-ethyl-1,2,3,4-tetrahydro-6,7-dimethoxy-1-isoquinolyl)-4-[4-[3-methyl-3H-1,2,3-triazolo[4,5-d]pyrimidin-7-yl]-1-piperazinyl]carbonyl-spiro[cyclohexane-1,1′(2′H)-isoquinoline]] |  | 0.3 mg/kg |  |
| CCN1CCc2cc(OC)c(OC)cc2[C@@H]1[C@H]1C[C@H](C(=O)N2CCN(c3ncnc4c3cnn4Cc3ccncc3)CC2)CC[C@]12c1cc(OC)c(OC)cc1CCN2C(=O)CCNC (racemic) [Example 165(2), (1R*,2R*(S),4R)-2′-[3-(methylamino)propionyl]-3′,4′-dihydro-6′,7′-dimethoxy-2-(2-ethyl-1,2,3,4-tetrahydro-6,7-dimethoxy-1-isoquinolyl)-4-[4-[1-(4-pyridylmethyl)-1H-pyrazolo[3,4-d]pyrimidin-4-yl]-1-piperazinyl]carbonyl-spiro[cyclohexane-1,1′(2′H)-isoquinoline]] | 0.05 µM |  | Evacuation-promoting activity in guinea pig (Effective dose: mg/kg i.p.) (guinea pig): 0.01 mg/kg; IC50 [2]: 0.002 µM |
| COc1cc2c(cc1OC)C1(CCC(C(=O)N3CCN(c4ncnc5c4cnn5Cc4ccccn4)CC3)CC1)N(CCCN)CC2 (stereo not drawn) [282 (2)] | 0.02 µM |  |  |
